Three molecules from US12486273B2 (Hoffmann-La Roche Inc., priority 2019, dated 2025) can be followed below.

Each structure is given as a SMILES string.

The target in data set [1] is human TLR9 (Homo sapiens (Human), UniProt Q9NR96). As to the kind of experiment: HEK293-Blue-hTLR-9 cells assay. The format is cell-based. Conditions: HEK293-Blue-hTLR9 cells, ODN2006 stimulation, 20 hrs, SEAP reporter; read-out: HEK/hTLR9 IC50. From the text: HEK293-Blue-hTLR-9 Cells Assay:
A stable HEK293-Blue-hTLR-9 cell line was purchased from InvivoGen (Cat. #: hkb-htlr9, San Diego, California, USA). These cells were originally designed for studying the stimulation of human TLR9 by monitoring the activation of NF-κB. A SEAP (secreted embryonic alkaline phosphatase) reporter gene was placed under the control of the IFN-β minimal promoter fused to five NF-κB and AP-1-binding sites. The SEAP was induced by activating NF-κB and AP-via stimulating HEK-Blue hTLR9 cells with TLR9 ligands. Therefore the reporter expression was declined by TLR9 antagonist under the stimulation of a ligand, such as ODN2006 (Cat. #: tlrl-2006-1, Invivogen, San Diego, California, USA), for incubation of 20 hrs. The cell culture supernatant SEAP reporter activity was determined using QUANTI-Blue™ kit (Cat. #: rep-qb1, Invivogen, San Diego, California, USA) at a wavelength of 640 nm, a detection medium that turns purple or blue in the presence of alkaline phosphatase.
(§1) HEK293-Blue-hTLR9 cells were incubated at a density of 250,000˜450,000 cells/mL in a volume of 170 μL in a 96-well plate in Dulbecco's Modified Eagle's medium (DMEM) containing 4.5 g/L glucose, 50 U/mL penicillin, […], […], 2 mM L-glutamine, 10% (v/v) heat-inactivated fetal bovine serum with addition of 20 μL test compound in a serial dilution in the presence of final DMSO at 1% and 10 μL of 20 μM ODN2006 in above DMEM, perform incubation under 37° C. in a CO2 incubator for 20 hrs. Then 20 μL of the supernatant from each well was incubated with 180 μL Quanti-blue substrate solution at 37° C. for 2 h and the absorbance was read at 620-655 nm using a spectrophotometer. The signaling pathway that TLR9 activation leads to downstream NF-κB activation has been widely accepted, and therefore similar reporter assay was modified for evaluating TLR9 antagonist.

Data set [2] can be described thus: Human microsomal stability assay. The data set is classed as in vitro ADME. Conditions: human liver microsomes, 1 μM test compound, 37° C., pH 7.4. How it is done:
Human Microsomal Stability Assay
Human liver microsomes (Cat. NO.: 452117, Corning, USA) were preincubated with test compound for 10 minutes at 37° C. in 100 mM potassium phosphate buffer, pH 7.4. The reactions were initiated by adding NADPH regenerating system. The final incubation mixtures contained 1 μM test compound, 0.5 mg/mL liver microsomal protein, 1 mM MgCl2, 1 mM NADP, 1 unit/mL isocitric dehydrogenase and 6 mM isocitric acid in 100 mM potassium phosphate buffer, pH 7.4. After incubation times of 0, 3, 6, 9, 15 and 30 minutes at 37° C., 300 μL of cold ACN (including internal standard) was added to 100 μL incubation mixture to terminate the reaction. Following precipitation and centrifugation, 100 μL supernatant will be taken out and added 300 μL water. The amount of compound remaining in the samples was determined by LC-MS/MS. Controls of no NADPH regenerating system at zero and 30 minutes were also prepared and analyzed. The results were categorized as: low (<7.0 mL/min/kg), medium (7.0-16.2 mL/min/kg) and high (16.2-23.2 mL/min/kg).

Data set [3] addresses human TLR8 (Homo sapiens (Human), UniProt Q9NR97). As to the kind of experiment: HEK293-Blue-hTLR-8 cells assay. The format is cell-based. To be noted: HEK293-Blue-hTLR8 cells, R848 stimulation, 20 hrs, SEAP reporter; read-out: HEK/hTLR8 IC50. From the text: HEK293-Blue-hTLR-8 Cells Assay:
(§2) A stable HEK293-Blue-hTLR-8 cell line was purchased from InvivoGen (Cat. #: hkb-htlr8, San Diego, California, USA). These cells were originally designed for studying the stimulation of human TLR8 by monitoring the activation of NF-κB. A SEAP (secreted embryonic alkaline phosphatase) reporter gene was placed under the control of the IFN-β minimal promoter fused to five NF-κB and AP-1-binding sites. The SEAP was induced by activating NF-κB and AP-1 via stimulating HEK-Blue hTLR8 cells with TLR8 ligands. Therefore the reporter expression was declined by TLR8 antagonist under the stimulation of a ligand, such as R848, for incubation of 20 hrs. The cell culture supernatant SEAP reporter activity was determined using QUANTI-Blue™ kit (Cat. #: rep-Qb1, Invivogen, San Diego, Ca, USA) at a wavelength of 640 nm, a detection medium that turns purple or blue in the presence of alkaline phosphatase.
HEK293-Blue-hTLR8 cells were incubated at a density of 250,000-450,000 cells/mL in a volume of 170 μL in a 96-well plate in Dulbecco's Modified Eagle's medium (DMEM) containing 4.5 g/L glucose, 50 U/mL penicillin, […], […], 2 mM L-glutamine, 10% (v/v) heat-inactivated fetal bovine serum with addition of 20 μL test compound in a serial dilution in the presence of final DMSO at 1% and 10 μL of 60 μM R848 in above DMEM, perform incubation under 37° C. in a CO2 incubator for 20 hrs. Then 20 μL of the supernatant from each well was incubated with 180 μL Quanti-blue substrate solution at 37° C. for […] and the absorbance was read at 620˜655 nm using a spectrophotometer. The signaling pathway that TLR8 activation leads to downstream NF-κB activation has been widely accepted, and therefore similar reporter assay was modified for evaluating TLR8 antagonist.

Data set [4] deals with human TLR7 (Homo sapiens (Human), UniProt Q9NYK1). Description: HEK293-Blue-hTLR-7 cells assay. The data set is classed as cell-based. Conditions: HEK293-Blue-hTLR7 cells, R848 stimulation, 20 hrs, SEAP reporter; read-out: HEK/hTLR7 IC50.
Sequence of human TLR7 (Q9NYK1 27-1049): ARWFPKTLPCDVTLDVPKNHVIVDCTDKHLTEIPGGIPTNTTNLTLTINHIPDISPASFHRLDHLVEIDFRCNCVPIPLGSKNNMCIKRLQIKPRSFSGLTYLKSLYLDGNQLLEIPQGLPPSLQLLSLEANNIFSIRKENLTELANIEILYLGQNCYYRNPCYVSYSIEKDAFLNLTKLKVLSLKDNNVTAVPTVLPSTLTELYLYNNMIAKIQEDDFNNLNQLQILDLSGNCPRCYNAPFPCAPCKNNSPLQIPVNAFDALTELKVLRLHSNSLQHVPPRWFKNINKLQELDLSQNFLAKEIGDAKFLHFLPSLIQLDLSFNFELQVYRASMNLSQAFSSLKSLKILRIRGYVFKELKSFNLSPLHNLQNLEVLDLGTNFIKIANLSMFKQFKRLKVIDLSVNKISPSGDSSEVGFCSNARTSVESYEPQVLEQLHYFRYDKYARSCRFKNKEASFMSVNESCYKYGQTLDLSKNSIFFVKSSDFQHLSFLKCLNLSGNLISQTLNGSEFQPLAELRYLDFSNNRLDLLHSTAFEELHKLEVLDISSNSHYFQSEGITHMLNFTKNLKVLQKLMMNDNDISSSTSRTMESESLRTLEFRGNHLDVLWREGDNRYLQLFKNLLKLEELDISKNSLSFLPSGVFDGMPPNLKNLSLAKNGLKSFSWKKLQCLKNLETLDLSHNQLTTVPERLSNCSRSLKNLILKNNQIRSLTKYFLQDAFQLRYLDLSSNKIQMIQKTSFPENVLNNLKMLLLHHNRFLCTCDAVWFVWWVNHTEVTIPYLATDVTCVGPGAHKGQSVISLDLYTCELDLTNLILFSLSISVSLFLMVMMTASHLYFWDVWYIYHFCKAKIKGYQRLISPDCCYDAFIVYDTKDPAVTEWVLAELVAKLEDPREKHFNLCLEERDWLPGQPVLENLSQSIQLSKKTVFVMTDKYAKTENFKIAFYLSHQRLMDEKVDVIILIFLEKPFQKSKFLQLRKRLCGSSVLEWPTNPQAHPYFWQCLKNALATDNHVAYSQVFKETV
Description: HEK293-BLUE-hTLR-7 CELLS ASSAY:
as §2, with “HEK293-Blue-hTLR-7” for “HEK293-Blue-hTLR-8”, “hkb-htlr7,” for “hkb-htlr8,”, “TLR7” for “TLR8”, “hTLR7” for “hTLR8”, “R848 (Resiquimod),” for “R848,”, “rep-qb1,” for “rep-Qb1,”
as §1, with “HEK293-Blue-hTLR7 cells” for “HEK293-Blue-hTLR9 cells”, “μM R848” for “μM ODN2006”, “2 hrs” for “2 h”, “that TLR7” for “that TLR9”, “evaluating TLR7” for “evaluating TLR9”

Sequence of human TLR9 (Q9NR96 26-1032): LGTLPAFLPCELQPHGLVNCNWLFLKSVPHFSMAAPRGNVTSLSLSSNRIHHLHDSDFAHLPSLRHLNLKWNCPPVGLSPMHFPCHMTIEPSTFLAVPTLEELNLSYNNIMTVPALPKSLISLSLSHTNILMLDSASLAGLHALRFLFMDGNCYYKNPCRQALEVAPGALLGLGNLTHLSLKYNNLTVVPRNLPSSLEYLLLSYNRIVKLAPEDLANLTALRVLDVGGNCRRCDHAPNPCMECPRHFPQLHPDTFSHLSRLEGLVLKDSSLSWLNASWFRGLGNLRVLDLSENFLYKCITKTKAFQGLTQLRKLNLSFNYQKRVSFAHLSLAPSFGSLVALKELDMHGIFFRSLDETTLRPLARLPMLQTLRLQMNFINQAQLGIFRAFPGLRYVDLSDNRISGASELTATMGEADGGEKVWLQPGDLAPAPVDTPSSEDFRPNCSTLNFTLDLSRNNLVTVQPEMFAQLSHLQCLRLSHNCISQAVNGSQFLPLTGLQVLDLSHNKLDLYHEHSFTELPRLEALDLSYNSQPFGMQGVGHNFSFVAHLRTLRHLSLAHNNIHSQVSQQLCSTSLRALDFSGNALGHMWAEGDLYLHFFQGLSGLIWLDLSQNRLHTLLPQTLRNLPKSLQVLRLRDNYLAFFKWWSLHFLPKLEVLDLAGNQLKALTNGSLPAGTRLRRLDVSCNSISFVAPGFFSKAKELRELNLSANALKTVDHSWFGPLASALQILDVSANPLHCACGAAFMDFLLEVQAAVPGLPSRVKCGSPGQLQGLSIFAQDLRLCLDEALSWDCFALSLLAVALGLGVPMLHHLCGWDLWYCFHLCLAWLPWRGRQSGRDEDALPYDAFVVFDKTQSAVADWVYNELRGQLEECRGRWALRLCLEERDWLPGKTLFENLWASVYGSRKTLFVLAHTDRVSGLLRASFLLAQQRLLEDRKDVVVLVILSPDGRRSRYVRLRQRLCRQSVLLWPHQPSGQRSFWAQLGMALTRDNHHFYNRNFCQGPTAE
Sequence of human TLR8 (Q9NR97 27-1041): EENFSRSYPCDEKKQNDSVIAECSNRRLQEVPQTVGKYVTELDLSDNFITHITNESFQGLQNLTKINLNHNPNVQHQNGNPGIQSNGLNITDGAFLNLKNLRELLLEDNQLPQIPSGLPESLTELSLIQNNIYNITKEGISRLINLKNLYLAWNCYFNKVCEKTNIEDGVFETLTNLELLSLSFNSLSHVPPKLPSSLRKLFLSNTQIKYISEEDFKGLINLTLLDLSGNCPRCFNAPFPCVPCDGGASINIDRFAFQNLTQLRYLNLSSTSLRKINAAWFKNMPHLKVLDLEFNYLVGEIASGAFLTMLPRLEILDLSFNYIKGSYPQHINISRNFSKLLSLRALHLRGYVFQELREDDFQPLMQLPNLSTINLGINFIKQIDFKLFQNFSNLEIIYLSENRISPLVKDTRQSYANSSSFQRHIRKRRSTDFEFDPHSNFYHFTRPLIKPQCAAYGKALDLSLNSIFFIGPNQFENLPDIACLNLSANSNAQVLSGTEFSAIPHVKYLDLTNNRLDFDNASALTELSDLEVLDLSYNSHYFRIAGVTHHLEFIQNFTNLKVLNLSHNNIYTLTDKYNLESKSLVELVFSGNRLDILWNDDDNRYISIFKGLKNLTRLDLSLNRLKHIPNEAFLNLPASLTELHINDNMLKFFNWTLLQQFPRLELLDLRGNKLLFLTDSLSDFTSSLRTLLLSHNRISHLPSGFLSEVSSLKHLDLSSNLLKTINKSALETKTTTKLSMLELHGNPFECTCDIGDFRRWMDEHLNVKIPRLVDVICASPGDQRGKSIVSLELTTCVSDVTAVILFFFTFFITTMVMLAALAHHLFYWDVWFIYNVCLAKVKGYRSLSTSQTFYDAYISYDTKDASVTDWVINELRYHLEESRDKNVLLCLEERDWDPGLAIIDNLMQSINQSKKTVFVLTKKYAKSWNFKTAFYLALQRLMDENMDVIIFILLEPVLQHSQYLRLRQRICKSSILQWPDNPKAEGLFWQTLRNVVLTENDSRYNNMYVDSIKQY

For `[2H]c1ccc2c(N3C[C@@H]4C[C@H](n5ncc6c5CNCC6)CN4[C@H](C)C3)ccc(C#N)c2n1` [Example 23A, 2-Deuterio-5-[(4R,7S,8aS)-4-methyl-7-(4,5,6,7-tetrahydropyrazolo[3,4-c]pyridin-1-yl)-3,4,6,7,8,8a-hexahydro-1H-pyrrolo[1,2-a]pyrazin-2-yl]quinoline-8-carbonitrile], the IC50 in data set [1] is 0.407 µM; in data set [3] it was 0.0138 µM; in data set [4], 0.0105 µM. The “CL (h)” value in data set [2] amounted to 0.486 L/h/kg.

For the molecule `C[C@@H]1NCCc2cnc(N[C@@H]3C[C@H]4CN(c5ccc(C#N)c6ncccc56)C[C@@H](C)N4C3)cc21` [Example 9A, 5-[(4R,7R,8aS)-4-methyl-7-[[(5S)-5-methyl-5,6,7,8-tetrahydro-2,6-naphthyridin-3-yl]amino]-3,4,6,7,8,8a-hexahydro-1H-pyrrolo[1,2-a]pyrazin-2-yl]quinoline-8-carbonitrile], the IC50 worked out at 0.0657 µM in data set [1], 0.0086 µM in data set [3] and 0.0182 µM in data set [4]. Moreover, the “CL (h)” value in data set [2] worked out at 0.504 L/h/kg.

With `[2H]c1ccc2c(N3C[C@@H]4C[C@H](N5CC(n6ncc7c6CN[C@H](C)C7)C5)CN4[C@H](C)C3)ccc(C#N)c2n1` [Example 22A, 5-[(4R,7S,8aS)-4-methyl-7-[3-[(5R)-5-methyl-4,5,6,7-tetrahydropyrazolo[3,4-c]pyridin-1-yl]azetidin-1-yl]-3,4,6,7,8,8a-hexahydro-1H-pyrrolo[1,2-a]pyrazin-2-yl]-2-deuterio-quinoline-8-carbonitrile], the IC50 in data set [1] was found to be 0.0321 µM; in data set [3], 0.0145 µM; in data set [4] it was 0.0103 µM. In addition, the “CL (h)” value in data set [2] turned out to be 0.492 L/h/kg.
